Measurements taken from patent US12390425B1, “Use of tyrosol as a physiological enhancer of creatine and its application in continuous high intensity exercise” (MolTek Nutrition Co., Ltd, priority 2024, dated 2025).

Tests used:
Format in all cases: in vivo
skeletal muscle of mice = assay: Phosphocreatine and creatine levels in dissected leg skeletal muscle after continuous interval electrical stimulation (Experiment 1); settings: for Creatine (CR) level in skeletal muscle / Phosphocreatine (PCr) level in skeletal muscle / Total creatine (TCr) level in skeletal muscle: 2 weeks diet: CR 5% creatine monohydrate, Ty+CR 1% tyrosol and 5% creatine monohydrate, mean±SE; for Total creatine (TCr) level in skeletal muscle: sum of PCr and CR
Experimental: Animal Experiment: Thirty 8-week-old mice were prepared and acclimated to the laboratory environment for one week before being randomly divided into three groups. Control Group: Normal diet with no added active ingredients, serving as the control group. CR Group: Normal diet supplemented with 5% creatine monohydrate. Ty+CR Group: Normal diet supplemented with 1% tyrosol and 5% creatine monohydrate.
After two weeks of feeding, the mice were anesthetized, and the leg skeletal muscles were dissected, showing clear connective tissue without blood. For muscle contraction tests via electrical stimulation, the muscles were first incubated in a specific physiological buffer solution for 10 minutes to recover from dissection. The muscles were then clamped with aluminum forceps and stimulated using platinum electrodes and a capacitor alternating polarity discharge.
The muscles were subjected to 250 ms electrical stimulation with six intervals, each interval progressively shortened from 4 s to 1 s. After six interval stimulations, a 1-minute observation period followed before the next round, totaling four rounds. The left and right leg muscles of each mouse were labeled, and subjected to the aforementioned electrical stimulation test.
Phosphocreatine (PCr) and creatine (CR) levels were immediately measured in the dissected right leg muscles after the electrical stimulation test. The dissected left leg muscles of all groups were measured for phosphocreatine and creatine levels 5 minutes after the test. Total creatine (TCr) levels were the sum of phosphocreatine and creatine levels. Standard fluorescence assay was used to determine phosphocreatine and creatine levels in muscle samples extracted with perchloric acid precipitation.
Note: Values are expressed as mean±SE, in mmol/kg dry weight.

mice [1] = assay: Grip strength test during continuous high-intensity exercise (Experiment 2); settings: for Percentage change of muscle strength (grip strength relative to first exercise): gavage daily 4 weeks: Ty 75 mg/kg tyrosol, CR 260 mg/kg creatine monohydrate, Ty+CR 75 mg/kg+260 mg/kg
Experimental: Animal Experiment 1: Six-week-old mice were used. After one week of acclimation to the environment, the mice were randomly divided into the following groups:
(§1) Control Group: Normal diet, serving as the control group.
(§2) Ty Group: Normal diet, with 75 mg/kg tyrosol administered by gavage daily.
(§3) CR Group: Normal diet, with 260 mg/kg creatine monohydrate administered by gavage daily.
(§4) Ty+CR Group: Normal diet, with 75 mg/kg tyrosol+260 mg/kg creatine monohydrate administered by gavage daily.
(§5) This regimen continued for 4 weeks. The first grip strength test was conducted 30 minutes after the last gavage. The grip strength of the mice's limbs was measured using a grip strength meter. After a 1-hour rest, the mice underwent the first exhaustive swimming exercise. […] The mice were then placed in a weighted swimming tank at a water temperature of 30±1° C. for the exhaustive swimming test. Exhaustion was considered if the mice touched the bottom of the tank three consecutive times within 30 seconds. The detector recorded the mice's bottom-touching instances, and upon determining exhaustion, the swimming tank automatically lifted the mice, recording the exhaustive swimming time.
(§6) 24 hours after the first swimming exercise, the second grip strength test and exhaustive swimming exercise were conducted using the same methods, recording grip strength data and exhaustive swimming time. The third and fourth grip strength tests and exhaustive swimming exercises were conducted 24 hours after the previous exercise, recording the respective data. The gavage regimen remained unchanged during the intervals.
Note: The data compared each group's grip strength in subsequent exercises to their grip strength in the first exercise, reflected the difference in grip strength from the initial value.

mice [2] = assay: Weighted exhaustive swimming test during continuous high-intensity exercise (Experiment 2); settings: for Percentage change of exhaustive exercise time (relative to first exercise): gavage daily 4 weeks: Ty 75 mg/kg tyrosol, CR 260 mg/kg creatine monohydrate, Ty+CR 75 mg/kg+260 mg/kg; for Exhaustive swimming exercise time compared to control group, FIG. 2 / Trend of exhaustive swimming exercise time during continuous exercise, FIG. 2: Ty 75 mg/kg, CR 260 mg/kg, Ty+CR 75+260 mg/kg; for Exhaustive swimming exercise time compared to control group, FIG. 2: 4 weeks; for Trend of exhaustive swimming exercise time during continuous exercise, FIG. 2: four exercises 24 h apart
Experimental: After one week of acclimation to the environment, the mice were randomly divided into the following groups:
as §1, §2, §3, §4, §5, §6
Note: The data compared each group's exhaustive exercise time in subsequent exercises to their exhaustive exercise time in the first exercise, reflected the difference in exhaustive exercise time from the initial value.

mice [3] = assay: Grip strength test during continuous high-intensity exercise (Experiment 3)
Experimental: (§7) Animal Experiment 2: Six-week-old mice were used. After one week of acclimation to the environment, the mice were randomly divided into the following groups:
as §1
(§8) Ty 1 Group: Normal diet, with 2.6 mg/kg tyrosol administered by gavage daily.
(§9) CR 1-3 Groups: Normal diet, with 65 mg/kg, 390 mg/kg, and 1300 mg/kg creatine monohydrate administered by gavage daily.
(§10) Ty+CR 1-4 Groups: Normal diet, with 2.6 mg/kg tyrosol+65 mg/kg creatine monohydrate, 130 mg/kg tyrosol+130 mg/kg creatine monohydrate, 390 mg/kg tyrosol+1300 mg/kg creatine monohydrate, and 2.6 mg/kg tyrosol+1300 mg/kg creatine monohydrate administered by gavage daily.
With the exception of groups Ty 1, CR 1, and Ty+CR 1 which were fed for 8 weeks, all other dosing groups were fed for 4 weeks, with one daily gavage. Groups CR 3, Ty+CR 3, and Ty+CR 4 received their daily gavage dose in two separate administrations each day. Half of the control group was fed for 4 weeks, and the other half for 8 weeks. The first grip strength test was conducted 30 minutes after the last gavage, followed by the first exhaustive swimming exercise after a 1-hour rest. Grip strength and swimming exercise methods were the same as previously described. 24 hours after the first swimming exercise, the second grip strength test and exhaustive swimming exercise were conducted using the same methods, recording grip strength data and exhaustive swimming time. The third and fourth grip strength tests and exhaustive swimming exercises were conducted 24 hours after the previous exhaustive swimming exercise, recording grip strength data and exhaustive swimming time. Groups CR 3 and Ty+CR 4 underwent up to the eighth grip strength test and exhaustive swimming exercise, maintaining the same exercise methods. During the intervals, the gavage regimen for each group remained unchanged.

mice [4] = assay: Weighted exhaustive swimming test during continuous high-intensity exercise (Experiment 3)
Experimental: as §7, §1, §8, §9, §10
With the exception of groups Ty 1, CR 1, and Ty+CR 1 which were fed for 8 weeks, all other dosing groups were fed for 4 weeks, with one daily gavage. Groups CR 3, Ty+CR 3, and Ty+CR 4 received their daily gavage dose in two separate administrations each day. Half of the control group was fed for 4 weeks, and the other half for 8 weeks. The first grip strength test was conducted 30 minutes after the last gavage, followed by the first exhaustive swimming exercise after a 1-hour rest. Grip strength and swimming exercise methods were the same as previously described. […]

mice [5] = assay: Grip strength test during continuous high-intensity exercise (Experiment 2); settings: first grip strength test; Ty 75 mg/kg, CR 260 mg/kg, Ty+CR 75+260 mg/kg, 4 weeks
[6] = 5 min later after electrical stimulation
[7] = immediately after electrical stimulation
[8] = CR 1: 65 mg/kg creatine monohydrate, Ty+CR 1: 2.6 mg/kg tyrosol+65 mg/kg creatine monohydrate, 8 weeks

Row | SMILES | Percentage change of muscle strength (grip strength relative to first exercise) (mice [1]; First exercise) | Percentage change of muscle strength (grip strength relative to first exercise) (mice [1]; Fourth exercise) [%] | Percentage change of muscle strength (grip strength relative to first exercise) (mice [1]; Second exercise) [%] | Percentage change of muscle strength (grip strength relative to first exercise) (mice [1]; Third exercise) [%] | Percentage change of exhaustive exercise time (relative to first exercise) (mice [2]; Fourth exercise) [%] | Percentage change of exhaustive exercise time (relative to first exercise) (mice [2]; Second exercise) [%] | Percentage change of exhaustive exercise time (relative to first exercise) (mice [2]; Third exercise) [%] | Exhaustive swimming exercise time compared to control group, FIG. 2 (mice [2]) | Trend of exhaustive swimming exercise time during continuous exercise, FIG. 2 (mice [2]) | Muscle strength (grip strength) compared to control group, FIG. 1 (mice [5]) | other results
1 | CN(CC(=O)O)C(=N)N.O [CR, creatine monohydrate] | 1 | 76.10 | 89.24 | 83.81 | 81.88 | 95.26 | 88.10 | did not improve the endurance of the mice at the beginning | declined to varying degrees | significantly increased compared to the control group | Creatine (CR) level in skeletal muscle (skeletal muscle of mice; [6]): 22.7 ± 2.8 mmol/kg dry weight; Phosphocreatine (PCr) level in skeletal muscle (skeletal muscle of mice; [6]): 39.7 ± 2.2 mmol/kg dry weight; Total creatine (TCr) level in skeletal muscle (skeletal muscle of mice; [6]): 62.4 ± 3.0 mmol/kg dry weight; Decrease of creatine levels 5 minutes after end of muscle contraction (creatine conversion) (skeletal muscle of mice; immediate vs 5-min-later data within each group): 53.86%; Creatine (CR) level in skeletal muscle (skeletal muscle of mice; [7]): 49.2 ± 3.7 mmol/kg dry weight; Phosphocreatine (PCr) level in skeletal muscle (skeletal muscle of mice; [7]): 13.4 ± 1.2 mmol/kg dry weight; Total creatine (TCr) level in skeletal muscle (skeletal muscle of mice; [7]): 62.6 ± 4.0 mmol/kg dry weight; Levels of creatine, phosphocreatine and total creatine compared to control group (skeletal muscle of mice; immediately after stimulation or 5 minutes later): higher than those in the control group; Trend of muscle strength (grip strength) in subsequent exercises, FIG. 1 (mice [1]; four exercises 24 h apart, CR 260 mg/kg, Ty+CR 75+260 mg/kg): decline rate in the creatine group was also rapid; Percentage change of exhaustive exercise time (relative to first exercise) (mice [2]; First exercise): 1; Muscle strength (grip strength) compared to control group, FIG. 4 (mice [3]; [8]): significantly increased the muscle strength of the mice; Muscle strength (grip strength) compared to control group, FIG. 3 (mice [3]; CR 2: 390 mg/kg creatine monohydrate, Ty+CR 2: 130 mg/kg tyrosol+130 mg/kg creatine monohydrate, 4 weeks): significantly higher than that in the control group; Trend of muscle strength (grip strength) during continuous exercise, FIG. 3 (mice [3]; CR 2: 390 mg/kg creatine monohydrate, Ty+CR 2: 130 mg/kg tyrosol+130 mg/kg creatine monohydrate, four exercises): marked decline in muscle strength; Endurance time (exhaustive swimming) compared to control group, FIG. 6 (mice [4]; [8]): did not improve the endurance time of mice; Endurance (exhaustive swimming time), FIG. 5 (mice [4]; CR 2: 390 mg/kg creatine monohydrate, 4 weeks): able to enhance the endurance of mice and prolong exercise time
2 | OCCc1ccc(O)cc1 [Ty, tyrosol] | 1 | 85.05 | 97.40 | 96.55 | 88.45 | 97.13 | 94.54 | significantly higher than that of the control group mice | declined to varying degrees | did not show a significant increase in muscle strength | 
